The results in this text go back to ChEMBL document CHEMBL1201862, “PubChem BioAssay data set” (2004).

The source made the active and inactive calls.

The target in one test is T1, Bcl-2-related protein A1 (Mus musculus, UniProt Q07440).
T1 sequence (Q07440 whole entry): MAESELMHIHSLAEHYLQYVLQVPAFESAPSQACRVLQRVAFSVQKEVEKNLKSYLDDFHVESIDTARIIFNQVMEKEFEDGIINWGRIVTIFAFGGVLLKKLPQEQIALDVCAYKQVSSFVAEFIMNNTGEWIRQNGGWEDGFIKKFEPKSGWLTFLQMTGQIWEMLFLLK
Nature of the test: small-molecule antagonists of Bfl-1/BH3 interaction – biochemical, TR-FRET, mouse Bfl-1, confirmation (AID 621).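 Further: TR-FRET binding of GST-Bfl-1 to FITC-labelled Bid peptide via terbium antibody.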 A general note: TR-FRET usually uses a lanthanide donor and a delayed reading to cut background.

For a further test, the target named is T2, Insulin-degrading enzyme (Homo sapiens, UniProt P14735).
T2 sequence (P14735 whole entry): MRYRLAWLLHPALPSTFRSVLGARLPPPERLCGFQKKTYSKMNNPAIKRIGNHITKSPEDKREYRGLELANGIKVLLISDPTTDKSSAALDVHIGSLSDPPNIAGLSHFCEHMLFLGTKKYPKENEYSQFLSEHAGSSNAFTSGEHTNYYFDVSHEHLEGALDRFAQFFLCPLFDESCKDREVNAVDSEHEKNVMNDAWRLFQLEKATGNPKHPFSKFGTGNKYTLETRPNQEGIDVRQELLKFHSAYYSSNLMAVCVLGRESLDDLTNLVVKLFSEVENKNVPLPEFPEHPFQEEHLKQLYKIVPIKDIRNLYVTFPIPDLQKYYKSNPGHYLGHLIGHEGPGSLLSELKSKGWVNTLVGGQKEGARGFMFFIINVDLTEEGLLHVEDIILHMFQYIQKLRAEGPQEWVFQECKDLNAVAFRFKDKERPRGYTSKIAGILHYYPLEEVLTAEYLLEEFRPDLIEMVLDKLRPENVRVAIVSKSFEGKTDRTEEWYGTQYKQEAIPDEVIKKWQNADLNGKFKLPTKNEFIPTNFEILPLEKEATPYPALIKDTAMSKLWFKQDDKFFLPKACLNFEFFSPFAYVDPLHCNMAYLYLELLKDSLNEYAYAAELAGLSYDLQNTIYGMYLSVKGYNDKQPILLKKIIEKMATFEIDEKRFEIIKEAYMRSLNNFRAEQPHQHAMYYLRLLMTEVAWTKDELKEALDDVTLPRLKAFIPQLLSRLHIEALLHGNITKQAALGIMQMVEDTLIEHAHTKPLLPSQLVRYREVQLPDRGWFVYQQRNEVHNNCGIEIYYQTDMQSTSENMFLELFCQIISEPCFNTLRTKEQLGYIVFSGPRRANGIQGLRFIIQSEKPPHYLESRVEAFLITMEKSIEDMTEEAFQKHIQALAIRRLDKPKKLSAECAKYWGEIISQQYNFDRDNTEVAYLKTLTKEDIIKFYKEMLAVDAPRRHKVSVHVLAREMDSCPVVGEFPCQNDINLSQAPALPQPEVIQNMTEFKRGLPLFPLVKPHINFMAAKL
The experiment in a line: recombinant IDE activation, cell-free – biochemical, fluorescence polarization, counter-screen for IDE activator project, dose response (AID 588681). (In fluorescence polarisation assays a small probe gives low polarisation when free and higher when bound to something large.)

As usually defined, the IC50 is the concentration that gives 50% inhibition. `Oc1nc(Nc2ccccc2)cc2ccccc12`: the IC50 at Bcl-2-related protein A1 is reported as > 100 µM (not active).
A word on the EC50: it is the midpoint of the concentration-response curve. As for `COc1cc(OC)c(-c2c3cc(O)c(=O)cc-3oc3cc(O)c(O)cc23)cc1OC`, on Insulin-degrading enzyme, the EC50 was > 54.7 µM (inactive).
